Results from US8597700B2, “Method of treating osteoporosis with extract of Dioscorea sp” (National Yang-Ming University, priority 2002, dated 2013).
Marks after values point to notes of the source that are not given here.

Experiments:
[1] = tested on: osteoprogenitor cells; test: Proliferative response of osteoprogenitor cells of mice (MTT assay); type: cell-based, C3H/HeN mice; settings: 0.01 and 0.1 μg/ml, 72 hours
Description: Under sterile conditions, femoral bones of the SPF grade of C3H/HeN mouse were obtained and injected with DMEM/F12. The bone marrow cells were flushed out and filtered through No. 53 sterile nylon mesh. The single cell suspension obtained was mixed with DMEM/F12 culture medium containing 15% FCS to adjust the concentration of the cells.
The cells were cultured in DMEM/F12 medium containing 15% FCS, 50 μg/ml ascorbic acid, 10 mM sodium β glycerophosphate and 10 nM dexamethasone in a T-flask for 6 days. The culture medium was renewed every 3 days. The cell concentration was 10^6 cells/cm^2. On the 6th day, the suspended cells and culture medium were drawn out. The adhering cell layer was washed with 1×PBS that had been warmed to room temperature, and then treated with 0.01% EDTA at 37° C. for 5 to 10 minutes. […]
The cells obtained in preparatory step 4 were dispersed using a 22 G gauge needle and suspended in DMEM/F12 medium containing 15% FCS, 50 μg/ml ascorbic acid, 10 mM sodium β-glycerophosphate and 10 nM dexamethazone to form a concentration of 4.5×10^4 cells/ml. […] 1 mg/ml MTT solution was added in each well and reacted for 4 hours MTT lysis buffer (20% SDS-50% DMF) was added in each well in the amount of 150 μl/well and reacted for 16 hours, and the absorbance was measured at O.D. 570 nm for the resultant cell suspension in each well.

[2] = tested on: bone marrow cells of mice; test: Proliferation (MTT) and morphologic change of bone marrow cells in the presence of GM-CSF; type: cell-based
Description: (§1) Under sterile conditions, SPF grade C3H/HeN mice were sacrificed and their femoral bones were injected with a liquid culture of DMEM/F12 to flush out the bone marrow cells. The cells were filtered through sterile No. 53 nylon mesh. The single cell suspension so obtained was mixed with DMEM/F12 culture medium containing N2 to adjust to the proper concentration.
1×10^4 cells/well bone marrow cells of mice obtained in preparatory step 3 were seeded in each well of the 96-well microplate, cultured in DMEM/F 12 culture medium containing N2, and 4 ng/ml mGM-CSF. Methanol extracts of Dioscorea sp. with different concentrations were respectively added into the resultant cultured cells in the different wells. The resultant methanol extract containing cultured cells in different wells were then incubated in a 5% CO2 incubator at 37° C. for 14 days. The cells cultured in DMEM/F12 medium containing N2 and 20 ng/ml mGM-CSF is used as positive control. A MTT assay was performed. In this respect, 1 mg/ml MTT solution was added in each well so as to react with the cultured cells therein for 4 hours. MTT lysis buffer (20% SDS-50% DMF) was added in a n amount of 150 μl/well. The resultant mixture was allowed to react for 16 hours. The absorbance was measured at O.D. 570 nm.

[3] = tested on: bone marrow cells of C3H mice; test: Proliferation (MTT) and morphological changes of bone marrow cells in the presence of EGF; type: cell-based, C3H/HeN mice
Description: as §1
1×10^4 cells/well bone marrow cells of mice obtained in preparatory step 3 were seeded in a 96-well microplate containing DMEM/F12 culture medium with N2 and 10 ng/ml EGF and incubated in a 5% CO2 incubator at 37° C for 24 hrs. The extract and DHEA were added into different wells respectively. Wells containing pure culture medium into which no methanol extract and DHEA were added, and which were subjected to the same incubation procedure, were used as […]. In addition, for use as positive control, the same procedure as that for control was repeated except that 50 ng/ml EGF was used. The proliferation responses were measured by a MTT assay. In accordance with the MTT assay, each of the wells was added with 1 mg/ml MTT solution and, after 4 hours of reaction, MTT lysis buffer (20% SDS-50% DMF) was added thereinto in an amount of 150 μl/well. The resultant mixture was allowed to be reacted for 16 hours. The absorbance was measured at O.D. 570 nm.

## C[C@]12CC[C@H](O)CC1=CC[C@@H]1[C@@H]2CC[C@]2(C)C(=O)CC[C@@H]12 [DHEA, Dehydroepiandrosterone]
[1]
  proliferation of the osteoprogenitor cells: no effect
[2]; 0.0001 μg/ml
  Proliferation Index: 0.99
[2]; 0.001 μg/ml
  Proliferation Index: 1.15
[2]; 0.01 μg/ml
  Proliferation Index: 1.04
[2]; 0.1 μg/ml
  Proliferation Index: 1.13
[2]; 1 μg/ml
  Proliferation Index: 1.11
[2]; 10 μg/ml
  Proliferation Index: 1.19*
[2]; 20-week old adult mouse bone marrow cells
  differentiation of bone marrow cells: enhancing cell differentiation
[3]; 0.0001 μg/ml
  Proliferation Index: 0.99
[3]; 0.001 μg/ml
  Proliferation Index: 0.64
[3]; 0.01 μg/ml
  Proliferation Index: 0.65
[3]; 0.1 μg/ml
  Proliferation Index: 0.67
[3]; 1 μg/ml
  Proliferation Index: 0.70
